Source: article PMC7948467, “Discovery of an ultraspecific triuret hydrolase (TrtA) establishes the triuret biodegradation pathway” (The Journal of Biological Chemistry, 2020)

Experiments:
TrtA = molecular target: T1, TrtA (Herbaspirillum sp. BH-1, UniProt A0A2N6JFX7); assay: inhibition of triuret hydrolysis; assay type: biochemical; conditions: likely competitive; Ki not determinable because biuret contains about 1 mol% triuret; inhibition only above 50 mM, where TrtA precipitates; tag state not stated
T1 construct: N-terminal 6xHis tag and thrombin site kept, pET28a, E. coli BL21(DE3), codon-optimized; subunit 24 kDa, homodimer
T1 sequence (A0A2N6JFX7 1-227): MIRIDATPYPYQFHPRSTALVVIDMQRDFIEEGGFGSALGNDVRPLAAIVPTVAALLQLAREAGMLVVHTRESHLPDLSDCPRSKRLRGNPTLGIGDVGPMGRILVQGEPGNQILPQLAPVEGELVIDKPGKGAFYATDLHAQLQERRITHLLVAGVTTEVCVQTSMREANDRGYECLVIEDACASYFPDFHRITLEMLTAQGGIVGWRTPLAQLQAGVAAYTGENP

RhdBiuH = molecular target: T2, RhdBiuH (Rhodococcus sp. Mel, UniProt H8ZKV9, C169S); assay: X-ray crystal structure; assay type: binding; conditions: cocrystal with biuret; active site; inactive mutant
T2 construct: recombinant

[1] = molecular target: T3, CtermDelΔ7+Cleaved His-tag (Herbaspirillum sp. BH-1, UniProt A0A2N6JFX7); assay: ammonia release, Berthelot assay; assay type: biochemical; conditions: phosphate buffer, pH 8, 25 °C
T3 construct: gene trtA
Text: ammonia release, Berthelot assay on CtermDelΔ7+Cleaved His-tag

T2 sequence (H8ZKV9 entry or part of it C169S): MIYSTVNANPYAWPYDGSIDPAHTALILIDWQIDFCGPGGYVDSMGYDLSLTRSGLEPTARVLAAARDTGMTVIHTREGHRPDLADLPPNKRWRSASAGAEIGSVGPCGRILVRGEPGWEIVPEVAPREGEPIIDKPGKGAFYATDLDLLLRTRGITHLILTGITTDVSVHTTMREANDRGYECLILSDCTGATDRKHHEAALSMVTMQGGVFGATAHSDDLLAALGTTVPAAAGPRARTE

Row | Structure (SMILES) | inhibition of triuret hydrolysis (TrtA) | X-ray crystal structure (RhdBiuH) | Km [1]
1 | NC(=O)NC(N)=O [biuret] | Inhibition data suggests that biuret is a competitive inhibitor | The cocrystal with biuret showed similar mode of binding to that of BiuH | –
2 | NC(=O)NC(=O)NC(N)=O [triuret] | – | – | 16 ± 2 µM
